Laboratory results taken from PMC6431521, “Synthesis and Evaluation of ^18F-Labeled Peptide for Gonadotropin-Releasing Hormone Receptor Imaging” (Contrast Media & Molecular Imaging, 2019).

Molecular target: T1, human GnRH membrane preparations (GnRH receptor) (Homo sapiens, UniProt P30968)
T1 construct: purchased Millipore ChemiScreen HTS027M
T1 sequence (P30968 1-328): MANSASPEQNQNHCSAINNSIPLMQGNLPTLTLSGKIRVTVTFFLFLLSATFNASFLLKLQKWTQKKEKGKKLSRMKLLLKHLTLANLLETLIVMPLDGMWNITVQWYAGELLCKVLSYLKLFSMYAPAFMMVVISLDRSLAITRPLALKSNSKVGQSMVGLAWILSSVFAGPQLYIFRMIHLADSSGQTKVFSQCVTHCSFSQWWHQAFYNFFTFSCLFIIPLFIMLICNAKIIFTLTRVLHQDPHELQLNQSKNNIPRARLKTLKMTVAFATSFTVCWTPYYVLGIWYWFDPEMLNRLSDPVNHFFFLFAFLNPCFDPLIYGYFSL
Assay: In vitro competitive GnRH receptor binding assay
Conditions: for IC50: competitive binding, Millipore ChemiScreen human GnRH membrane preparations, radioligand [131I](His5, D-Tyr6)GnRH, 10^-11 to 10^-5 M peptide, room temperature 1.5 h, pH 7.4, gamma counter, n=3, read-out: GnRH receptor binding affinity IC50
Method: GnRH membrane preparations were obtained from Millipore ChemiScreen (HTS027M). The GnRH receptor binding affinities (IC50 values) of FP-D-Lys^6-GnRH, D-Lys^6-GnRH, and NOTA-P-D-Lys^6-GnRH were determined by in vitro competitive binding assay according to the manufacturer's protocol. In brief, 5 μL of Millipore ChemiScreen human GnRH membrane preparations was incubated at room temperature for 1.5 h with approximately 20,000 counts per minute (cpm) of [^131I](His^5, D-Tyr^6)GnRH in the presence of 10^−11 to 10^−5 M of each peptide in 95 μL of binding buffer (50 mM HEPES, 5 mM MgCl2, 1 mM CaCl2, 0.2% BSA, buffer to pH 7.4 using 1 M NaOH). After the incubation, 600 μL of ice-cold washing buffer (50 mM HEPES, 500 mM NaCl, 0.1% BSA, buffer to pH 7.4 using 1 M NaOH) was added to each mixture. Each resulting mixture was filtered through a GF/C filter (Whatman, Clifton, NJ) presoaked in 0.33% polyethylenimine. Each filter was rinsed with 1 mL of ice-cold wash buffer six times. The activities on the filters were measured in a gamma counter (γ-counter).
The GnRH receptor affinities for FP-D-Lys^6-GnRH, D-Lys^6-GnRH, and NOTA-P-D-Lys^6-GnRH were determined using human GnRH membrane preparations and [^131I](His^5, D-Tyr^6)GnRH as the radioligand.

[1] = ratio of IC50 values, GnRH receptor binding

Row | IC50 | Potency higher than the reference D-Lys6-GnRH [1] | Decrease of GnRH receptor binding affinity versus D-Lys6-GnRH [1] | Structure (SMILES)
1 | 15.8 nM | – | – | CC(C)C[C@H](NC(=O)[C@@H](CCCCN)NC(=O)[C@H](Cc1ccc(O)cc1)NC(=O)[C@H](CO)NC(=O)[C@H](Cc1c[nH]c2ccccc12)NC(=O)[C@H](Cc1cnc[nH]1)NC(=O)[C@@H]1CCC(=O)N1)C(=O)N[C@@H](CCCNC(=N)N)C(=O)N1CCC[C@H]1C(=O)NCC(N)=O [D-Lys^6-GnRH, reference compound]
2 | 2 nM | approximately 8 fold | – | CC(C)C[C@H](NC(=O)[C@@H](CCCCNC(=O)C(C)F)NC(=O)[C@H](Cc1ccc(O)cc1)NC(=O)[C@H](CO)NC(=O)[C@H](Cc1c[nH]c2ccccc12)NC(=O)[C@H](Cc1c[nH]cn1)NC(=O)[C@@H]1CCC(=O)N1)C(=O)N[C@@H](CCCNC(=N)N)C(=O)N1CCC[C@H]1C(=O)NCC(N)=O (stereo partly drawn) [FP-D-Lys^6-GnRH]
3 | – | – | approximately 4 fold | CC(C)C[C@H](NC(=O)[C@@H](CCCCNC(=O)CCOCCOCCOCCNC(=O)CN1CCN(CC(=O)O)CCN(CC(=O)O)CC1)NC(=O)[C@H](Cc1ccc(O)cc1)NC(=O)[C@H](CO)NC(=O)[C@H](Cc1c[nH]c2ccccc12)NC(=O)[C@H](Cc1c[nH]cn1)NC(=O)[C@@H]1CCC(=O)N1)C(=O)N[C@@H](CCCNC(=N)N)C(=O)N1CCC[C@H]1C(=O)NCC(N)=O [NOTA-P-D-Lys^6-GnRH]
